Tests used:
[1] = tested on: TLR agonist (lipopolysaccharide and R848) and IL-1β-induced proinflammatory cytokine production; assay: In vitro cytokine release assays in PBMCs; type: cell-based; details: LPS
[2] = target: T1, breast cancer resistance protein (BCRP) (Homo sapiens, UniProt Q9UNQ0); assay: BCRP substrate and efflux inhibition in vitro; type: in vitro ADME
T1 sequence (Q9UNQ0 1-655): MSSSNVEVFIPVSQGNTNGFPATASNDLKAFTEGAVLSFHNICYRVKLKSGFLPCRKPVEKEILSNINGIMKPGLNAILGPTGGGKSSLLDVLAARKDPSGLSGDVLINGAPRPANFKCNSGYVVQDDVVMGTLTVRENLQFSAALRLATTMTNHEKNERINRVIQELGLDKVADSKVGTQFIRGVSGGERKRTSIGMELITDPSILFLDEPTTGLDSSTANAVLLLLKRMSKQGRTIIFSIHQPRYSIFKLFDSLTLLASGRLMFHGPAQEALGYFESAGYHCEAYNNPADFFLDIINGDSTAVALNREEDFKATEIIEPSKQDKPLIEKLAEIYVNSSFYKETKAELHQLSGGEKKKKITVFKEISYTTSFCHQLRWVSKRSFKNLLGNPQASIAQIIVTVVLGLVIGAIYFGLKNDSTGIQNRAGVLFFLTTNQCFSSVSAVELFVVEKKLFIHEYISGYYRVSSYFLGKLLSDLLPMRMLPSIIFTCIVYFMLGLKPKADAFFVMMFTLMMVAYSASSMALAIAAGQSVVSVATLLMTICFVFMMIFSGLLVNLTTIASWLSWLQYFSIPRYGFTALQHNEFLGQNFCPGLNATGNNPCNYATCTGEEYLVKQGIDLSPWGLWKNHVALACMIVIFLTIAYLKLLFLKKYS
Description: (§1) In in vivo pharmacokinetic (PK) studies conducted in rats, dogs, and monkeys.
Metabolites generated in liver microsomes from humans were also detected in those from rat, dog, and monkey. In the in vitro drug-drug interaction studies.

[3] = tested on: disease-relevant cytokines ex vivo; assay: Phase 1 Part C ex vivo cytokine stimulation assays; type: in vivo, human
Description: Plots show median of the maximum change from baseline between Days 7-14 in MAD3 and Days 14-28 in Part C.
IL-36, IFN-g, IL-8, IL-5, GZMB and COX2 in HS and IL-5, IL-31, NLRP3, CXCL1 and IL-2RB in AD (FIG. 25A-B).

[4] = tested on: patients with hidradenitis suppurativa (HS); assay: Phase 1 Part C clinical efficacy in hidradenitis suppurativa; type: in vivo, human; details: for ΔAN Count / ΔPain NRS / ΔPeak Pruritis NRS / Responders: AN Count 0/1/2 / Responders: HiSCR50 / Responders: HiSCR75 / Responders: Pain NRS30: HS; for ΔAN Count: deepest reduction across Days 28 through 42; for ΔPain NRS / ΔPeak Pruritis NRS: deepest reduction, past week; for Responders: AN Count 0/1/2 / Responders: HiSCR50 / Responders: HiSCR75 / Responders: Pain NRS30: highest response across Days 28 through 42
Description: (§2) Baseline Characteristics and Disposition: A total of 21 patients were enrolled in the trial, including 13 HS and 8 AD patients, with median age 31-40 years (13 female, 8 male). Disease severity for HS was moderate (10), severe (1) and very severe (2) and for AD was mild (1), moderate (5) and severe (2). One HS and 1 AD patient withdrew from treatment early due to personal reasons, resulting in 12 HS and 7 AD patients evaluable for PD and clinical efficacy.
HS clinical endpoints collected in the study included AN count, Pain NRS. Pruritus NRS and HS-PGA. […] Analyses were done for all patients, including very severe (n=12), and for patients with only moderate to severe disease (n=10).

[5] = target: T2, IRAK4 (Canis lupus familiaris, UniProt A0A8I3S726); assay: In vitro IRAK4 degradation, dog PBMCs; type: cell-based; details: read-out: DC50 (IRAK4 degradation)
T2 construct: endogenous in cells; host or cells: dog PBMCs
T2 sequence (A0A8I3S726 1-460): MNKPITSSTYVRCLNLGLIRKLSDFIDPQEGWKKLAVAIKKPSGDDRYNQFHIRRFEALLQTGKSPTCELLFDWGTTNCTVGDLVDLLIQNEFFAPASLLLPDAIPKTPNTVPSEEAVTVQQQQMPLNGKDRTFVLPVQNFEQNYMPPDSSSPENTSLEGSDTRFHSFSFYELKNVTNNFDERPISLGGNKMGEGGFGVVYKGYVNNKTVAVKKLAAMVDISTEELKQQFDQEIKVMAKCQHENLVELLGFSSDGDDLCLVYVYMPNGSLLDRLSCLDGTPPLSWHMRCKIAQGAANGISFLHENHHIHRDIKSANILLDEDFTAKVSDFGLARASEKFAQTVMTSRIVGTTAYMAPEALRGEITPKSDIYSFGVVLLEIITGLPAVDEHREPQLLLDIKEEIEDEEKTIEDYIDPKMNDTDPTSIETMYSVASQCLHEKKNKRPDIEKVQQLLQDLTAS

[6] = In vivo PK studies in rats, dogs and monkeys
Description: as §1

[7] = Excretion study in bile duct-cannulated (BDC) rats; type: in vivo
[8] = tested on: patients with atopic dermatitis (AD); assay: Phase 1 Part C clinical efficacy in atopic dermatitis; type: in vivo, human
Description: as §2
AD clinical endpoints collected in the study included EASI score, Peak Pruritus NRS and vIGA-AD. Peak Pruritus NRS was used to derive Peak Pruritus NRS responder rate.

[9] = AD, n = 7, 75 mg QD fed, highest response across Days 28 through 42
[10] = AD, n = 7, deepest reduction across Days 28 through 42

## Cn1c(=O)n([C@@H]2CCC(=O)NC2=O)c2cccc(C#CCOC3CCN(C[C@H]4CC[C@H](n5cc(NC(=O)c6cnn7ccc(N8C[C@H]9C[C@@H]8CO9)nc67)c(C(F)F)n5)CC4)CC3)c21 [Compound A, 5-((1R,4R)-2-oxa-5-azabicyclo[2.2.1]heptan-5-yl)-N-(3-(difluoromethyl)-1-((1r,4R)-4-((4-((3-(1-(2,6-dioxopiperidin-3-yl)-3-methyl-2-oxo-2,3-dihydro-1H-benzo[d]imidazol-4-yl)prop-2-yn-1-yl)oxy)piperidin-1-yl)methyl)cyclohexyl)-1H-pyrazol-4-yl)pyrazolo[1,5-a]pyrimidine-3-carboxamide]
[1]
  IC50 values, inhibition of proinflammatory cytokine production (IL-6, TNF-α, GM-CSF, IL-8): low nM range
[2]
  inhibition of BCRP efflux: inhibited BCRP efflux
  substrate of breast cancer resistance protein (BCRP): substrate
[3]; AD patients
  inhibition of disease-relevant cytokines ex vivo, maximum: up to 98%
[3]; AD patients, FIG. 23
  cytokine inhibition, IFN-γ: up to 95%
  cytokine inhibition, IL-1β: up to 81%
  cytokine inhibition, IL-6: up to 74%
  cytokine inhibition, IL-8: up to 85%
  cytokine inhibition, IL-10: up to 98%
  cytokine inhibition, IL-12: up to 76%
  cytokine inhibition, IL-17: up to 83%
  cytokine inhibition, IL-23: up to 95%
  cytokine inhibition, TNF-α: up to 74%
[3]; HS patients
  inhibition of disease-relevant cytokines ex vivo, maximum: up to 84%
[3]; HS patients, FIG. 23
  cytokine inhibition, IFN-γ: up to 76%
  cytokine inhibition, IL-1β: up to 57%
  cytokine inhibition, IL-6: up to 50%
  cytokine inhibition, IL-8: up to 59%
  cytokine inhibition, IL-10: up to 52%
  cytokine inhibition, IL-12: up to 84%
  cytokine inhibition, IL-17: up to 46%
  cytokine inhibition, TNF-α: up to 54%
[3]; HS/AD patients, median of maximum change from baseline Days 14-28
  inhibition of 9 disease-relevant cytokines ex vivo, maximum: up to 98%
[4]; FIG. 36
  disease severity in patient HS-10: from moderate to mild
[4]; HS patients, FIG. 30
  AN count of 0/1/2 response rate: 42-50%
  AN count reduction: 46-51%
[4]; HS patients, FIG. 31
  HiSCR50 response rate: 42-50%
[4]; HS patients, FIG. 32
  reduction in Pain NRS: 49-50%
  response rate in Pain NRS30: 50-60%
[4]; HS patients, FIG. 33
  reduction in Peak Pruritus NRS: 62-68%
[4]; All Patients (n = 12)
  ΔAN Count: −46%
  ΔPain NRS: −49%
  ΔPeak Pruritis NRS: −62%
  Responders: AN Count 0/1/2: 42%
  Responders: HiSCR50: 42%
  Responders: HiSCR75: 25%
  Responders: Pain NRS30: 50%
[4]; Moderate/Severe (n = 10)
  ΔAN Count: −51%
  ΔPain NRS: −55%
  ΔPeak Pruritis NRS: −68%
  Responders: AN Count 0/1/2: 50%
  Responders: HiSCR50: 50%
  Responders: HiSCR75: 50%
  Responders: Pain NRS30: 60%
[4]; all HS patients
  HS-PGA scores: stable or improved (5 of 12)
[4]; moderate disease at baseline, FIG. 35
  lesions and symptoms in patient HS-3: complete clearing of lesions and symptoms
[5]
  DC50: < 10 nM
[6]
  bioavailability: low to moderate
  clearance: moderate to high
  terminal half-life: moderate
  volume of distribution at steady state: high
[7]
  biliary and intestinal excretion as parent drug: minor to moderate
  renal clearance: negligible
[8]; AD patients, FIG. 26
  EASI score reduction: up to 37%
[8]; AD patients, FIG. 27
  Peak Pruritus NRS reduction: 52-63%
  Peak pruritus NRS Responder rate: 57-71%
[8]; [9]
  Responders: Peak Pruritis NRS, Past 24 Hours: 71%
  Responders: Peak Pruritis NRS, Past Week: 57%
[8]; [10]
  ΔEASI: −37%
  ΔPeak Pruritis NRS, Past 24 Hours: −63%
  ΔPeak Pruritis NRS, Past Week: −52%
[8]; FIG. 29
  disease severity in patient AD-3: from severe to mild
[8]; all AD patients
  vIGA-AD (IGA scores): stable or improved (2 of 7)

From US20260207614A1, “IRAK4 DEGRADERS AND USES THEREOF” (Kymera Therapeutics, Inc., priority 2022, published 2026)
